Assay [1] has as its target T1, NDM-1 (Klebsiella pneumoniae, UniProt C7C422). Briefly: biochemical. Particulars: cleavage of imipenem (100 uM) by NDM-1; read-out: Ki, Imipenem.
Assay [2] deals with T1, NDM-1. Kind of assay: Inhibition of purified class B carbapenemase NDM-1 (Ki, imipenem substrate). It is filed as biochemical. To be noted: NDM-1, substrate imipenem; read-out: Ki NDM-1, Imipenem.
In assay [3] the target is T2, purified class A, C and D enzymes (UniProt P0AD64, L31Q/G234S/E235K, species not given).
T2 construct: Ki (SHV-12, NCF); other: purified SHV-12; nitrocefin reporter substrate
T2 sequence (P0AD64 1-286 L31Q/G234S/E235K): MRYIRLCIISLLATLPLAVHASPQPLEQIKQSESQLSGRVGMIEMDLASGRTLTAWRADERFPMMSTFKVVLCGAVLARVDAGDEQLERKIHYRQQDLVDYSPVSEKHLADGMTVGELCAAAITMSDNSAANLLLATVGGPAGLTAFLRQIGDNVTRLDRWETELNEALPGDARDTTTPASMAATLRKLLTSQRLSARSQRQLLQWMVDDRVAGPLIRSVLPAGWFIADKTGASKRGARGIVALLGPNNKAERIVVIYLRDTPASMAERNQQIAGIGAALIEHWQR
The class given is biochemical. Particulars: read-out: Ki (SHV-12, NCF); purified SHV-12; nitrocefin reporter substrate.

The target of assay [4] is purified class A, C and D enzymes (Escherichia coli, UniProt Q9L5C7). It is filed as biochemical. To be noted: purified CTX-M-14; nitrocefin reporter substrate.
The target in assay [5] is T3, purified class A, C and D enzymes (UniProt Q6XEC0).
T3 construct: rows headed: Ki (OXA-48, NCF); other: purified OXA-48; nitrocefin reporter substrate
The class given is biochemical. To be noted: read-out: Ki (OXA-48, NCF); purified OXA-48; nitrocefin reporter substrate.

Assay [6] concerns the target purified class A, C and D enzymes (Enterobacter cloacae, UniProt P05364). The class given is biochemical. Particulars: purified P99/AmpC of ECL; nitrocefin reporter substrate.
Assay [7] addresses T4, purified class A, C and D enzymes (UniProt Q9F663).
T4 construct: rows headed: Ki (KPC-2, NCF); other: purified KPC-2; nitrocefin reporter substrate
The class given is biochemical. To be noted: read-out: Ki (KPC-2, NCF); purified KPC-2; nitrocefin reporter substrate.

Assay [8] addresses T5, VIM-1 (Pseudomonas aeruginosa, UniProt A0A0F7KYQ8).
T5 construct: made in house; host or cells: ECM6711 strain carrying pUCP24-VIM-1 plasmid; culture supernatant used unpurified
Briefly: biochemical. To be noted: cleavage of nitrocefin (200 uM) by VIM-1 supernatant.

A value given as a limit tells only on which side of the number the result lay.

T1 sequence (C7C422 29-270, looked up, species assumed): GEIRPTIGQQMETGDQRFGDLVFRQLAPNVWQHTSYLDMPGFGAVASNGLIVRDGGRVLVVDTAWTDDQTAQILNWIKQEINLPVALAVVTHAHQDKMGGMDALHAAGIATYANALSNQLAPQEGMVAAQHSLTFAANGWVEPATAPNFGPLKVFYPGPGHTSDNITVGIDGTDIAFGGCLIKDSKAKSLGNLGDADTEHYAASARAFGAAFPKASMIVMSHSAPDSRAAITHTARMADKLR
Sequence of purified class A, C and D enzymes (Enterobacter cloacae, UniProt P05364) (P05364 21-381): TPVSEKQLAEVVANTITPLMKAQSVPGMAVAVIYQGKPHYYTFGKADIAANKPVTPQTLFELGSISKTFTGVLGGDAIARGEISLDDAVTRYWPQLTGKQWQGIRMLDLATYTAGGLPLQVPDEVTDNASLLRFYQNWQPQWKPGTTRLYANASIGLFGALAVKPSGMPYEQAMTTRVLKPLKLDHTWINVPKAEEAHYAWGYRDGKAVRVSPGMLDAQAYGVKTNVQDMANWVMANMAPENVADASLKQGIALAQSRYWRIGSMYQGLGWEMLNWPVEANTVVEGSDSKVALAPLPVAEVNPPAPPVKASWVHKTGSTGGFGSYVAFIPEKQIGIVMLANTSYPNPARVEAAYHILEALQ
Sequence of purified class A, C and D enzymes (Escherichia coli, UniProt Q9L5C7) (Q9L5C7 entry or part of it): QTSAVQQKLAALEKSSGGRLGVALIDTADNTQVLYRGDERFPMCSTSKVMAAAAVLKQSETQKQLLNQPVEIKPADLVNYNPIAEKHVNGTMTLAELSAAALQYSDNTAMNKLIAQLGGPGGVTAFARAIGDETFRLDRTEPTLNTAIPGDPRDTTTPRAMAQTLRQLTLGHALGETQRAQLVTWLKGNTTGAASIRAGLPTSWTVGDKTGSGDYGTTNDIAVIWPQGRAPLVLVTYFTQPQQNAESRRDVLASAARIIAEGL

`COc1ccc2c(c1C(=O)O)OB(O)[C@@H](Sc1nncn1N)C2` [Compound 26, (R)-3-(4-amino-4H-1,2,4-triazol-3-ylthio)-2-hydroxy-7-methoxy-3,4-dihydro-2H-benzo[e][1,2]oxaborinine-8-carboxylic acid]: the Ki in assay [1] was under 10 nM; in assay [2], under 10 nM; in assay [3], under 100 nM; in assay [5] it was under 100 nM; in assay [7], 100 to 1000 nM. In addition, the “Ki (CTX-M-14, NCF)” value in assay [4] is given as “X (Less than 0.1 μM)”. Further, the “Ki (P99/AmpC of ECL, NCF)” value in assay [6] is “Y (0.1 μM to 1 μM)”. The compound further registered an IC50 in assay [8] of under 1000 nM.

Regarding `COc1ccc2c(c1C(=O)O)OB(O)[C@@H](Sc1nncn1C)C2` [Compound 28, (R)-2-hydroxy-7-methoxy-3-(4-methyl-4H-1,2,4-triazol-3-ylthio)-3,4-dihydro-2H-benzo[e][1,2]oxaborinine-8-carboxylic acid], the Ki in assay [1] was under 10 nM; in assay [2] it was under 10 nM; in assay [3] it was under 100 nM; in assay [5] it was under 100 nM; in assay [7], 100 to 1000 nM. Besides, in assay [4], the “Ki (CTX-M-14, NCF)” value is listed as “X (Less than 0.1 μM)”. The “Ki (P99/AmpC of ECL, NCF)” value in assay [6] is reported as “Y (0.1 μM to 1 μM)”. For the same compound, in assay [8], the IC50 was under 1000 nM.

As for `CSc1ccc2c(c1C(=O)O)OB(O)[C@@H](Sc1nncn1C)C2` [Compound 29, (R)-2-hydroxy-3-(4-methyl-4H-1,2,4-triazol-3-ylthio)-7-(methylthio)-3,4-dihydro-2H-benzo[e][1,2]oxaborinine-8-carboxylic acid], the Ki in assay [1] is 10 to 100 nM; in assay [2] it was 10 to 100 nM; in assay [3], under 100 nM; in assay [5], under 100 nM; in assay [7], 100 to 1000 nM. Further, the “Ki (CTX-M-14, NCF)” value in assay [4] is given as “X (Less than 0.1 μM)”. Also, the “Ki (P99/AmpC of ECL, NCF)” value in assay [6] is “Y (0.1 μM to 1 μM)”. Besides, in assay [8], the IC50 was under 1000 nM.

`Cc1ccc2c(c1C(=O)O)OB(O)[C@@H](Sc1nnc(N)s1)C2` [Compound 31, (R)-3-(5-amino-1,3,4-thiadiazol-2-ylthio)-2-hydroxy-7-methyl-3,4-dihydro-2H-benzo[e][1,2]oxaborinine-8-carboxylic acid]: the Ki in assay [1] was over 100 nM; in assay [2], over 100 nM; in assay [3], under 100 nM; in assay [5], under 100 nM; in assay [7], 100 to 1000 nM. Also, the “Ki (CTX-M-14, NCF)” value in assay [4] is reported as “X (Less than 0.1 μM)”. Also, the “Ki (P99/AmpC of ECL, NCF)” value in assay [6] is reported as “Y (0.1 μM to 1 μM)”. In assay [8], this compound came in with a concentration for half-maximal inhibition (IC50) of at least 1000 nM.

As to `COc1cc(OC)c(C(=O)O)c2c1C[C@H](Sc1nnc(N)s1)B(O)O2` [Compound 32, (R)-3-(5-amino-1,3,4-thiadiazol-2-ylthio)-2-hydroxy-5,7-dimethoxy-3,4-dihydro-2H-benzo[e][1,2]oxaborinine-8-carboxylic acid], the Ki is 10 to 100 nM in assay [1]; 10 to 100 nM in assay [2]; under 100 nM in assay [3]; under 100 nM in assay [5]; under 100 nM in assay [7]. Besides, the “Ki (CTX-M-14, NCF)” value in assay [4] is reported as “X (Less than 0.1 μM)”. In assay [6], the “Ki (P99/AmpC of ECL, NCF)” value is reported as “X (Less than 0.1 μM)”. The compound further registered an IC50 in assay [8] of at least 1000 nM.

In the case of `Nc1nnc(S[C@H]2Cc3c(F)cc(F)c(C(=O)O)c3OB2O)s1` [Compound 33, (R)-3-(5-amino-1,3,4-thiadiazol-2-ylthio)-5,7-difluoro-2-hydroxy-3,4-dihydro-2H-benzo[e][1,2]oxaborinine-8-carboxylic acid], the inhibition constant (Ki) in assay [1] is over 100 nM; in assay [2] it was 10 to 100 nM; in assay [3], under 100 nM; in assay [5], under 100 nM; in assay [7], 100 to 1000 nM. For the same compound, the “Ki (CTX-M-14, NCF)” value in assay [4] is listed as “X (Less than 0.1 μM)”. Further, the “Ki (P99/AmpC of ECL, NCF)” value in assay [6] is listed as “X (Less than 0.1 μM)”. This compound returned an IC50 in assay [8] of at least 1000 nM.

With `C[S+]([O-])c1ccc2c(c1C(=O)O)OB(O)[C@@H](Sc1nnc(N)s1)C2` (stereo partly drawn) [Compound 34, (3R)-3-(5-amino-1,3,4-thiadiazol-2-ylthio)-2-hydroxy-7-(methylsulfinyl)-3,4-dihydro-2H-benzo[e][1,2]oxaborinine-8-carboxylic acid], the Ki was 10 to 100 nM in assay [1]; 10 to 100 nM in assay [2]; under 100 nM in assay [3]; under 100 nM in assay [5]; 100 to 1000 nM in assay [7]. In assay [4], the “Ki (CTX-M-14, NCF)” value is “X (Less than 0.1 μM)”. Further, the “Ki (P99/AmpC of ECL, NCF)” value in assay [6] is “X (Less than 0.1 μM)”. In assay [8], the half-maximal inhibitory concentration (IC50) is under 1000 nM.

Consider `COCc1ccc2c(c1C(=O)O)OB(O)[C@@H](Sc1nnc(N)s1)C2` [Compound 35, (R)-3-(5-amino-1,3,4-thiadiazol-2-ylthio)-2-hydroxy-7-(methoxymethyl)-3,4-dihydro-2H-benzo[e][1,2]oxaborinine-8-carboxylic acid], for which the Ki was 10 to 100 nM in assay [1]; 10 to 100 nM in assay [2]; under 100 nM in assay [3]; under 100 nM in assay [5]; under 100 nM in assay [7]. For the same compound, the “Ki (CTX-M-14, NCF)” value in assay [4] is reported as “X (Less than 0.1 μM)”. In addition, the “Ki (P99/AmpC of ECL, NCF)” value in assay [6] is “Y (0.1 μM to 1 μM)”. In addition, the IC50 in assay [8] is under 1000 nM.

Consider `Nc1nnc(S[C@H]2Cc3ccc(Cl)c(C(=O)O)c3OB2O)s1` [Compound 36, (R)-3-(5-amino-1,3,4-thiadiazol-2-ylthio)-7-chloro-2-hydroxy-3,4-dihydro-2H-benzo[e][1,2]oxaborinine-8-carboxylic acid], for which the Ki in assay [1] was 10 to 100 nM; in assay [2] it was 10 to 100 nM; in assay [3], under 100 nM; in assay [5], under 100 nM; in assay [7], under 100 nM. Also, the “Ki (CTX-M-14, NCF)” value in assay [4] is given as “X (Less than 0.1 μM)”. The “Ki (P99/AmpC of ECL, NCF)” value in assay [6] is recorded as “Z (Greater than 1 μM)”. In assay [8], the IC50 was at least 1000 nM.

With `Nc1nnc(S[C@H]2Cc3cc(F)c(F)c(C(=O)O)c3OB2O)s1` [Compound 37, (R)-3-(5-amino-1,3,4-thiadiazol-2-ylthio)-6,7-difluoro-2-hydroxy-3,4-dihydro-2H-benzo[e][1,2]oxaborinine-8-carboxylic acid], the Ki in assay [1] is 10 to 100 nM; in assay [2], 10 to 100 nM; in assay [3], under 100 nM; in assay [5], under 100 nM; in assay [7], under 100 nM. In addition, the “Ki (CTX-M-14, NCF)” value in assay [4] is recorded as “X (Less than 0.1 μM)”. Also, the “Ki (P99/AmpC of ECL, NCF)” value in assay [6] is “Z (Greater than 1 μM)”. In assay [8], the IC50 is at least 1000 nM.

As to `Nc1nnc(S[C@H]2Cc3c(F)c(F)c(F)c(C(=O)O)c3OB2O)s1` [Compound 38, (R)-3-(5-amino-1,3,4-thiadiazol-2-ylthio)-5,6,7-trifluoro-2-hydroxy-3,4-dihydro-2H-benzo[e][1,2]oxaborinine-8-carboxylic acid], the Ki in assay [1] is over 100 nM; in assay [2], over 100 nM; in assay [3], under 100 nM; in assay [5] it was under 100 nM; in assay [7], over 1000 nM. For the same compound, the “Ki (CTX-M-14, NCF)” value in assay [4] is “X (Less than 0.1 μM)”. Moreover, the “Ki (P99/AmpC of ECL, NCF)” value in assay [6] was “Y (0.1 μM to 1 μM)”. The compound also registered an IC50 in assay [8] of at least 1000 nM.

Regarding `COc1ccc2c(c1C(=O)O)OB(O)[C@@H](Sc1c[nH]nn1)C2` [Compound 39, (R)-3-(1H-1,2,3-triazol-4-ylthio)-2-hydroxy-7-methoxy-3,4-dihydro-2H-benzo[e][1,2]oxaborinine-8-carboxylic acid], the Ki in assay [1] is over 100 nM; in assay [2] it was over 100 nM; in assay [3] it was under 100 nM; in assay [5], under 100 nM; in assay [7], under 100 nM. The “Ki (CTX-M-14, NCF)” value in assay [4] is given as “X (Less than 0.1 μM)”. For the same compound, the “Ki (P99/AmpC of ECL, NCF)” value in assay [6] was “Y (0.1 μM to 1 μM)”. For the same compound, the concentration for half-maximal inhibition (IC50) in assay [8] was under 1000 nM.

For the compound `COc1ccc2c(c1C(=O)O)OB(O)[C@@H](Sc1ncn(CCCC(=O)O)n1)C2` [Compound 40, (R)-3-(1-(3-carboxypropyl)-1H-1,2,4-triazol-3-ylthio)-2-hydroxy-7-methoxy-3,4-dihydro-2H-benzo[e][1,2]oxaborinine-8-carboxylic acid], the Ki in assay [1] is over 100 nM; in assay [2], over 100 nM; in assay [3] it was under 100 nM; in assay [5] it was under 100 nM; in assay [7] it was under 100 nM. In addition, in assay [4], the “Ki (CTX-M-14, NCF)” value is reported as “X (Less than 0.1 μM)”. The “Ki (P99/AmpC of ECL, NCF)” value in assay [6] is “X (Less than 0.1 μM)”. The IC50 in assay [8] was at least 1000 nM.

As a reminder, the Ki is a measure of affinity in units of concentration, obtained from inhibition or displacement. The IC50 is the concentration at which inhibition is half-maximal. Low readings indicate greater potency in that assay, high ones weaker potency in that assay.

Source of the values: patent US10206937B2, “Boronic acid derivatives and therapeutic uses thereof” (Qpex Biopharma, Inc., priority 2014, dated 2019).
